The record followed here is the OPERA property sets (Mansouri et al. 2018).

Conditions in the first data set: not given
For `O[C@@H](Cc1ccccc1)c1ccccc1`, the melting point (commonly the temperature of the solid-liquid transition) amounted to 67 °C.

In turn, `CCCCCCCCSC(=O)Oc1cc(Cl)nnc1-c1ccccc1` had a log10 vapour pressure (mmHg) of -9.01 and a melting point of 27 °C.

In the case of `NCCCCCCCCCCN`, the melting point was found to be 62.5 °C.

As for `O=C(O)/C=C(/Br)C(=O)O`, the melting point is 163 °C.

Regarding `CCO[Si](OCC)(OCC)OCC`, the boiling point (as a rule, the temperature of boiling at a given pressure) came to 169 °C; the log10 vapour pressure (mmHg) was 0.275; the melting point is -82.5 °C.

Regarding `CC1=C2[C@H]3OC(=O)[C@@H](C)[C@@H]3[C@@H](O)C[C@@]2(C)C=CC1=O`, the melting point was 203 °C.

In turn, `c1ccc(-c2oc(-c3ccccc3)c(-c3ccccc3)c2-c2ccccc2)cc1` returned a melting point of 175 °C.

Turning to `CCC(CC)c1ccccc1`, the boiling point turned out to be 188 °C.

`C=C(C)[C@H]1Cc2c(cc(O)c3c2O[C@@H]2COc4cc(OC)c(OC)cc4[C@@H]2C3=O)O1` displayed a melting point of 195 °C.

Consider `CCCC(C(C)=O)C(=O)OCC` (stereo unspecified), for which the boiling point came out at 224 °C.

Molecule `COc1cccc(NC(=O)N(C)C)c1` yielded a log10 Koc (L/kg) of 1.72.

The molecule `CCCCCCCCCCCCC1=C(OC(C)=O)C(=O)c2ccccc2C1=O` gave a melting point of 59.6 °C.

As for `O=[N+]([O-])C(Br)(CO)CO`, the melting point was 132 °C and the ready biodegradability result is given as “not readily biodegradable”.

`C/C=C(/C)C(C)C` gave a boiling point of 89.9 °C and a melting point of -121 °C.

In turn, `O=[N+]([O-])c1ccc(-c2ccc([N+](=O)[O-])cc2)cc1` yielded a log10 vapour pressure (mmHg) of -7.56.

On to `O=C(O)COc1cccc2ccccc12`, for which the melting point is 196 °C.

For `O=C(NC(=O)c1c(F)cccc1F)Nc1ccc(Cl)c(Oc2ncc(C(F)(F)F)cc2Cl)c1`, the log10 vapour pressure (mmHg) is -12.

The molecule `CC(C)(C)c1ccc(C(C)(C)C)cc1` returned a boiling point of 238 °C and a melting point of 79.5 °C.

In turn, `CCCCCCC#CC(=O)O` registered a melting point of -8 °C.

In turn, `C=C(Br)CC1(C(C)C)C(=O)NC(=O)NC1=O` gave a melting point of 181 °C.

On to `Clc1ccccc1Cl`, for which the boiling point came to 180 °C, the log10 Henry constant (atm·m³/mol) was -2.72, the log10 Koa worked out at 4.36 and the log10 Koc (L/kg) was 2.56. Besides, the log10 vapour pressure (mmHg) worked out at 0.134, the melting point is -16.7 °C and the ready biodegradability entry was “not readily biodegradable”.

The molecule `N#CC1(O)CCCCC1` yielded a melting point of 35 °C.

As for `CC(=O)N(C)C(C)=O`, the boiling point was found to be 195 °C and the melting point is -25 °C.

`CC1=CC(=O)C=CC1=O` registered a melting point of 69 °C.

For `NS(=O)(=O)c1ccc(SCCCO)c(F)c1`, the melting point worked out at 110 °C.

For `Clc1ccc(-c2c(Cl)ccc(Cl)c2Cl)cc1`, the log10 Henry constant (atm·m³/mol) was -3.85 and the log10 Koa turned out to be 8.41.

As to `FC(F)=C(F)C(F)(F)F`, the boiling point is -29.6 °C, the log10 vapour pressure (mmHg) was 3.69 and the melting point is -156 °C.

As to `O=C(Br)c1ccccc1`, the boiling point was 218 °C, the log10 vapour pressure (mmHg) is -0.654 and the melting point was -24 °C.

For the molecule `Nc1ccccc1Cl`, the boiling point worked out at 209 °C, the log10 vapour pressure (mmHg) is -0.69, the melting point is -14 °C and the ready biodegradability entry is “not readily biodegradable”.

Molecule `CCCCC(=O)c1ccccc1` had a boiling point of 245 °C and a melting point of -9.4 °C.

For `CC(=O)NCCSC(C)=O`, the melting point turned out to be 32.5 °C.

For the molecule `CCC1(O)CCCCC1`, the boiling point worked out at 166 °C and the melting point was 34.5 °C.

`CSSC` displayed a boiling point of 110 °C, a log10 Henry constant (atm·m³/mol) of -2.92, a log10 vapour pressure (mmHg) of 1.46 and a melting point of -85 °C. Besides, the ready biodegradability result is reported as “not readily biodegradable”.

`C=CBr` displayed a boiling point of 15.8 °C, a log10 vapour pressure (mmHg) of 3.01 and a melting point of -138 °C.

Turning to `Oc1ccc(Cl)cc1O`, the melting point is 90.5 °C and the ready biodegradability entry is given as “not readily biodegradable”.

Molecule `Cc1ccc(C(=O)c2ccc(C)cc2)cc1` came in with a boiling point of 334 °C and a melting point of 96.5 °C.

For the molecule `CCN(CC)CCCO`, the boiling point is 190 °C.

For `ClC=CCl`, the boiling point is 55 °C, the log10 Henry constant (atm·m³/mol) was -2.39, the log10 vapour pressure (mmHg) was found to be 2.3 and the melting point was -57 °C. Moreover, the ready biodegradability result was “not readily biodegradable”.

The molecule `NC1CCCCC1` registered a boiling point of 134 °C, a log10 Henry constant (atm·m³/mol) of -5.38, a log10 vapour pressure (mmHg) of 1 and a melting point of -17.7 °C. For the same molecule, the ready biodegradability result was “readily biodegradable”.

Take `Oc1ccncc1`: the melting point is 150 °C and the ready biodegradability result was “readily biodegradable”.

The same data set, now with this note: fish.
`CC(C)(C)c1cc(-n2nc3ccccc3n2)c(O)c(C(C)(C)C)c1`: the log10 biotransformation half-life (days) came out at 0.89.

In turn, `Brc1cc(Br)c(-c2ccccc2)c(Br)c1` displayed a log10 BCF of 3.87 and a log10 biotransformation half-life (days) of 1.25.

Turning to `Clc1ccc(Cl)c(-c2cc(Cl)ccc2Cl)c1`, the log10 BCF is 4.26.

With `N=C(Nc1ccccc1)Nc1ccccc1`, the log10 BCF was 1.3.

Turning to `Clc1ccc(Oc2ccc(Cl)c(Cl)c2)cc1Cl`, the log10 BCF was 4.51.

As to `Clc1ccccc1Cl`, the log10 BCF amounted to 2.43 and the log10 biotransformation half-life (days) was 0.5.

In turn, `Clc1ccc(-c2c(Cl)ccc(Cl)c2Cl)cc1` returned a log10 biotransformation half-life (days) of 2.35.

`Nc1ccccc1Cl`: the log10 BCF was found to be 0.95 and the log10 biotransformation half-life (days) was -0.61.
